Assay results reported in patent US20140005163A1 (NOVARTIS AG, priority 2010, published 2014).

Columns and labels:
PI3K delta = target: T1, PI3K delta (Homo sapiens, UniProt O00329); experiment: PI3K delta kinase assay (Kinase-Glo luminescence); format: biochemical
T1 construct: for the full-length p110-d subunit are generated and fused by overlapping PCR; p85(iSH2) fusion partner (see partner chain) (N); His tag (C); made in house; host or cells: baculovirus; Tn5 (Trichoplusia ni) or TiniPro insect cells
Protocol: (§1) In a more preferred assay, the kinase reaction is performed in a final volume of 10 μL per well of a low volume non binding CORNING, 384 well black plate (Cat. No. #3676). The final concentrations of ATP and phosphatidyl inositol (PI) in the assay are 1 μM and 10 μg/mL respectively. The reaction is started by the addition of ATP.
(§2) The components of the assay are added per well as follows:
(§3) […] in 90% DMSO per well, in columns 1-20, 8 concentrations (1/3 and 1/3.33 serial dilution step) in single. • Low control: […] of 90% DMSO in half the wells of columns 23-24 (0.45% in final). • High control: […] of reference compound (e.g. compound of Example 7 in WO 2006/122806) in the other half of columns 23-24 (2.5 μM in final). • Standard: […] of reference compound as just mentioned diluted as the test compounds in columns 21-22 • 20 mL ‘buffer’ are prepared per assay: • 200 μL of 1M TRIS HCl pH7.5 (10 mM in final) • 60 μL of 1M MgCl2 (3 mM in final) • 500 μL of 2M NaCl (50 mM in final) • 100 μL of 10% CHAPS (0.05% in final) • 200 μL of 100 mM DTT (1 mM in final) • 18.94 mL of nanopure water • 10 mL ‘PI’ are prepared per assay: • 200 μL of 1 mg/ml L-alpha-Phosphatidylinositol (Liver Bovine, Avanti Polar Lipids Cat. No. 840042C MW=909.12) prepared in 3% OctylGlucoside (10 μg/ml in final) • 9.8 mL of ‘buffer’ • 10 mL ‘ATP’ are prepared per assay: • 6.7 μL of 3 mM stock of ATP giving a final concentration of 1 μM per well • 10 mL of ‘buffer’ • 2.5 mL of each PI3K construct are prepared per assay in ‘PI’ with the following final concentration: • 10 nM PI3K alfa EMV B1075 • 25 nM beta EMV BV949 • 10 nM delta EMV BV1060 • 150 nM gamma EMV BV950 • 5 μL of ‘PI/PI3K’ are added per well. • 5 μl ‘ATP’ are added per well to start the reaction. • The plates are then incubated at room temperature for 60 minutes (alfa, beta, delta) or 120 minutes (gamma). • The reaction is terminated by the addition of 10 μL Kinase-Glo (Promega Cat. No. #6714). • The assay plates are read after 10 minutes in Synergy 2 reader (BioTek, Vermont USA) with an integration time of 100 milliseconds and sensitivity set to 191. • Output: The High control is around 60'000 counts and the Low control is 30'000 or lower • This luminescence assay gives a useful Z′ ratio between 0.4 and 0.7
PI3Kγ BV-1060 p85(iSH2)-Gly Linker-p110d(Full-Length)-C-Term his Tag
(§4) IC50 is determined by a four parameter curve fitting routine that comes along with “excel fit”. […] Alternatively, IC50 values are calculated using idbsXLfit model 204, which is a 4 parameter logistic model.

PI3K alpha = target: T2, PI3K alpha (Homo sapiens, UniProt P42336); experiment: PI3K alpha kinase assay (Kinase-Glo luminescence); format: biochemical
T2 construct: p85(iSH2) fusion partner (see partner chain) (N); His tag (C); made in house; host or cells: baculovirus; Tn5 (Trichoplusia ni) or TiniPro insect cells
Protocol: as §1, §2, §3
Two different constructs, BV 1052 and BV 1075, are used to generate the PI3 Kinase a proteins for compound screening.
as §4

PI3K beta = target: T3, PI3K beta (Homo sapiens, UniProt P42338); experiment: PI3K beta kinase assay (Kinase-Glo luminescence); format: biochemical
T3 construct: for the full-length p110-b subunit are generated and fused by overlapping PCR; p85(iSH2) fusion partner (see partner chain) (N); His tag (C); made in house; host or cells: baculovirus; Tn5 (Trichoplusia ni) or TiniPro insect cells
Protocol: as §1, §2, §3
PI3Kβ BV-949 p85(iSH2)-Gly Linker-p110b(Full-Length)-C-Term his Tag
as §4

mTOR = target: T4, mTOR (Homo sapiens, UniProt P42345); experiment: Biochemical assay for m-TOR by TR-FRET; conditions: 8 μM ATP, 400 nM GFP-4EBP1, 0.5 nM mTOR
T4 construct: purchased Invitrogen Corporation (Carlsbad/CA, USA) PV4753
Protocol: Biochemical Assay for m-TOR by TR-FRET.
Assay components are purchased from Invitrogen Corporation (Carlsbad/CA, USA): GFP-4EBP1 (Cat. No. PV4759), Tb3+-α-p4EBP1 [pThr46] Antibody (Cat. No. PV4757), proprietary TR-FRET dilution buffer (Cat. No. PV3574), mTOR protein (Cat. No. PV4753).
Then 5 μL of ATP (8 μM final concentration) and GFP-4EBP1 (400 nM final concentration) with 5 μL mTOR proteins (0.5 nM final concentration) are incubated at rt. The standard reaction buffer for the TR-FRET mTOR assay contained 50 mM HEPES pH 7.5, 10 mM MnCl2, 50 mM NaCl, 1 mM EGTA, 1 mM DTT. Reactions were stopped with 10 μL of a mixture of EDTA containing the Tb3+-α-p4EBP1-[pT46] detection Ab (0.5 nM) in TR-FRET dilution buffer (proprietary to IVG). Plates are read 15 mins later in a Synergy2 reader using an integration time of 0.2 seconds and a delay of 0.1 seconds. […] A standard compound is used as a reference compound and included in all assay plates in the form of 16 dilution points in duplicate.

[1] = test system: PKB Ser473 phosphorylation in Rat1-myr-HA-p110 delta cells; experiment: Reverse protein array assay, PKB Ser473 phosphorylation in Rat1-myr-p110 delta cells; format: cell-based; conditions: read-out: p-PKB IC50
Protocol: (§5) The Rat1-myr-HA-p110 alpha, beta and delta cells were trypsinized and counted with a CASY TT cell counter (Schärfe System GmbH, Reutlingen Germany). […] The plates were incubated at 37° C. and 5% CO2 under humidified condition for at least 20 h. Compound of formula I working solutions were prepared freshly as serial 8 step dilutions (vol/vol) in DMSO on the day of the experiment. […] The final DMSO concentration was kept constant at 0.2%. cell culture medium containing 0.2% DMSO was used as vehicle treatment control. Post incubation, the cells were treated with the serial compound dilution. 50 μl of the compound medium mixture was added to the wells containing cells and 150 μl DMEM medium and incubated for 30 minutes (37° C., 5% CO2). After 30 minutes of incubation, the medium mixture was quickly removed by aspiration. […] 50 μl of the described lysis buffer mix was added to each well, followed by 10 minutes of incubation on ice.
(§6) The samples were spotted onto ZeptoMARKt PWG protein microarray chips (Zeptosens, Witterswil, Switzerland) with the piezoelectric microdispense-based, non-contact Nano-Plotter 2.1 (GeSiM, Grosserkmannsdorf, Germany). Each sample was spotted at 4 different sample concentrations (d1=100%, d2=75%, d3=50%, d4=25%) by diluting the cell lysate with the corresponding volume of lysis buffer mix. After spotting the ZeptoMARK® protein microarrays, the chips are incubated for 1 hour at 37° C. […] After 20 minutes of blocking the chips are extensively rinsed with deionized water (Milli-Q quality, 18MΩ×cm) and dried in a nitrogen air flow.
(§7) After incubation, the arrays were washed twice with 200 μl CAB1 buffer. […] The fluorescence signal was assessed with exposure times of 1, 3, 5 and 10 seconds, depending on the intensity of the signal. The resulting four images taken per array are stored as 16-bit TIF files.
(§8) The fluorescence images for each array were analyzed with the ZeptoVIEW Pro 2.0 software (Zeptosens, Witterswil, Switzerland) and the relative fluorescence intensity for each signal was calculated.

[2] = test system: PKB Ser473 phosphorylation in Rat1-myr-HA-p110 beta cells; experiment: Reverse protein array assay, PKB Ser473 phosphorylation in Rat1-myr-p110 beta cells; format: cell-based; conditions: 0.5 h, pAkt Ser473, 30 minutes incubation, read-out: p-PKB IC50
Protocol: as §5, §6, §7, §8

[3] = test system: S6 Ribosomal Protein phosphorylation Ser235/236 in TSC1 null mouse embryo fibroblast (MEF) cells; experiment: Reverse protein array assay, S6 Ribosomal Protein phosphorylation Ser235/236 in TSC1 null MEF cells; format: cell-based; conditions: 1 h, pS6 ribosomal protein Ser235/236, 60 minutes incubation, read-out: p-S6 IC50
Protocol: as §5, with “TSC1−/−” for “Rat1-myr-HA-p110 alpha, beta and delta”, “(Schirfe” for “(Schärfe”, “Working” for “Compound of formula I working”, “0.02%.” for “0.2%.”, “0.02%” for “0.2%”, “60” for “30”
The spotting of the chips follows the previous described method.

[4] = test system: PKB Ser473 phosphorylation in Rat1-myr-HA-p110 alpha cells; experiment: Reverse protein array assay, PKB Ser473 phosphorylation in Rat1-myr-p110 alpha cells; format: cell-based; conditions: 0.5 h, pAkt Ser473, 30 minutes compound incubation, read-out: p-PKB IC50
Protocol: as §5, §6, §7, §8

T2 sequence (P42336 with tags, fused parts or gaps limits assumed): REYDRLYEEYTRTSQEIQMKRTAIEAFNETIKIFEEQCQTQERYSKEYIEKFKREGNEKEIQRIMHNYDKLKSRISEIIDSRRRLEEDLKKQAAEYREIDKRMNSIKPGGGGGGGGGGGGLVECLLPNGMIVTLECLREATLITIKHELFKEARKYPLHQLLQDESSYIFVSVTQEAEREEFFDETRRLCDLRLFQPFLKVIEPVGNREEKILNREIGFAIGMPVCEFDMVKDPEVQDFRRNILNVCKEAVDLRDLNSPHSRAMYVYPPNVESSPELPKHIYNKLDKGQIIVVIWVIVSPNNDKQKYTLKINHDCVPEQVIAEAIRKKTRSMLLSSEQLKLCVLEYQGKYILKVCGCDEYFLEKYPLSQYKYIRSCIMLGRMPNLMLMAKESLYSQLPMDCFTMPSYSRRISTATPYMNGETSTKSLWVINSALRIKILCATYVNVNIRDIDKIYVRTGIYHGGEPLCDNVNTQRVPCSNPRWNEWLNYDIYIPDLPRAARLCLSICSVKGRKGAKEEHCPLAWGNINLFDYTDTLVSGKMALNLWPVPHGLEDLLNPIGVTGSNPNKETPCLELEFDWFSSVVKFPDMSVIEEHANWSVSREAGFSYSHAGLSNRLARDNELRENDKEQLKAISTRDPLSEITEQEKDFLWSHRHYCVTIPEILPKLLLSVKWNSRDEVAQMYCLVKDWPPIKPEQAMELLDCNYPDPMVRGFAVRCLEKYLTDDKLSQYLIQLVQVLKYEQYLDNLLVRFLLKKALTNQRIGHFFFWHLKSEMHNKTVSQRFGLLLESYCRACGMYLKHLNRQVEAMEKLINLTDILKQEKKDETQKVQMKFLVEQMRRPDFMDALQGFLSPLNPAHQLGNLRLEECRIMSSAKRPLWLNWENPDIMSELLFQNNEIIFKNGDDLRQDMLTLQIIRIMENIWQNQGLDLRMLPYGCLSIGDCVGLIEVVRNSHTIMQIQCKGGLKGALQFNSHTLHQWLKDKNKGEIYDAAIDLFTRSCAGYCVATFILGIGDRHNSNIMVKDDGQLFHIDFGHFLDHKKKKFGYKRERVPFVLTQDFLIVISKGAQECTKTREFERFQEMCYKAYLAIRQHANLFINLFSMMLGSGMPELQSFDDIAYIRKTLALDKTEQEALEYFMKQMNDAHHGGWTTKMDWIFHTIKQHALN
T4 sequence (P42345 1360-2549 limits assumed): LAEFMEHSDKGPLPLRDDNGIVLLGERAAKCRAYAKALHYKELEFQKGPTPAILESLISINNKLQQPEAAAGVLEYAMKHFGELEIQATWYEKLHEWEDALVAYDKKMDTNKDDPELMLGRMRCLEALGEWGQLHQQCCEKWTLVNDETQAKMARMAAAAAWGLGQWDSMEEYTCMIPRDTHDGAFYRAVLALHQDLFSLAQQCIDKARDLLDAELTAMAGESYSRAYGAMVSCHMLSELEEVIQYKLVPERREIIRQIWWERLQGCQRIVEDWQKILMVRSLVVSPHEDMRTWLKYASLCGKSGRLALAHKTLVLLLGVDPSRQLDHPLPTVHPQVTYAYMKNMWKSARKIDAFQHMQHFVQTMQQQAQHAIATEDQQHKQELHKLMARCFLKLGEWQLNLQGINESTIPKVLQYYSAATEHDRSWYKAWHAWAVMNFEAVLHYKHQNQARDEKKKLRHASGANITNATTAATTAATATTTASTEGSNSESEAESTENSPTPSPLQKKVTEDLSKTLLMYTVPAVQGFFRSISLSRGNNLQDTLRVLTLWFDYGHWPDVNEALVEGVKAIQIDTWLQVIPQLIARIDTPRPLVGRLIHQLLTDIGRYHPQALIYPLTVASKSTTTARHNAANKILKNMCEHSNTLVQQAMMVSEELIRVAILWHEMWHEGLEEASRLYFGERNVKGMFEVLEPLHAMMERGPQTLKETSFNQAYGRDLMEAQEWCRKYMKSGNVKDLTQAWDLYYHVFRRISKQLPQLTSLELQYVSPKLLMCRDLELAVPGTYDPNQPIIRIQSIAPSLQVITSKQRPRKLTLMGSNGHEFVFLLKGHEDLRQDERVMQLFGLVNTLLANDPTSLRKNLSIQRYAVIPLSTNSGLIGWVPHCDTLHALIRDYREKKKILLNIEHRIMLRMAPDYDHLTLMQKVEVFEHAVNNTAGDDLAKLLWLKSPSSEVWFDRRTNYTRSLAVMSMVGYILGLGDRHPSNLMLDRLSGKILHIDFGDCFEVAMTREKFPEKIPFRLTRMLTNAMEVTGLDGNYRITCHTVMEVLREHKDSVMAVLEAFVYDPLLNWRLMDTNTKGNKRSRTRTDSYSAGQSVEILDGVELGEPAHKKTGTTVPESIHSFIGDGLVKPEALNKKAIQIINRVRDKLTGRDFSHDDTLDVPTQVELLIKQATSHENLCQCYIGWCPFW
T1 sequence (O00329 with tags, fused parts or gaps limits assumed): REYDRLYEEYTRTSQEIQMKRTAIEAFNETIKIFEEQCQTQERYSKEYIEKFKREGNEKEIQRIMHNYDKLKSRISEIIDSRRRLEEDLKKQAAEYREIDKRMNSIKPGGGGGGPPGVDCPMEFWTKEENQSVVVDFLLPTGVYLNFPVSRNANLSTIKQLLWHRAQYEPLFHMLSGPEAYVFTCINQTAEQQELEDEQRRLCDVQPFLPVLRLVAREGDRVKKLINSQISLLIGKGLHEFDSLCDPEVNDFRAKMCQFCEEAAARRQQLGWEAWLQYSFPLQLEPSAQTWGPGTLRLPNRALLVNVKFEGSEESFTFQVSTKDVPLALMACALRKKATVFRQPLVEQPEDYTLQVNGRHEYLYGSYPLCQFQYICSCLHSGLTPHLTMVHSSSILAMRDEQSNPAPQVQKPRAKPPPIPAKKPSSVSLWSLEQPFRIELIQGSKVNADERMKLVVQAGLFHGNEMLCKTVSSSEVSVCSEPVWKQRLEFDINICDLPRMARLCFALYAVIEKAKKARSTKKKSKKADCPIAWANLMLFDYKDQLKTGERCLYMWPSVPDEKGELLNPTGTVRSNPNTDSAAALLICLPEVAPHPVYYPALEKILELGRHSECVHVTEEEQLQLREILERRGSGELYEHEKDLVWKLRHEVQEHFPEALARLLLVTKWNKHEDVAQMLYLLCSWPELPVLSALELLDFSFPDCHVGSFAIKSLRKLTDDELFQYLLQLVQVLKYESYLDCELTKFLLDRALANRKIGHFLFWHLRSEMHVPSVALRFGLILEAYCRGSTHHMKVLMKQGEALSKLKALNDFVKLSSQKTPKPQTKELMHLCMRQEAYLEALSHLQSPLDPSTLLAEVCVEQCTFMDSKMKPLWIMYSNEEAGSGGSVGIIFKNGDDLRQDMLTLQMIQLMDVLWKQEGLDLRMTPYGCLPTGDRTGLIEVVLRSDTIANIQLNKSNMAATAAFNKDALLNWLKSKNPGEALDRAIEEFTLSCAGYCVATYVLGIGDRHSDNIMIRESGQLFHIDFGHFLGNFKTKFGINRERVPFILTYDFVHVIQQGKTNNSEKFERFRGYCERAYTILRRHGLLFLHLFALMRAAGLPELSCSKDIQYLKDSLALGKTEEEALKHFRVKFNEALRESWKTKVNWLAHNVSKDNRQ
T3 sequence (P42338 with tags, fused parts or gaps limits assumed): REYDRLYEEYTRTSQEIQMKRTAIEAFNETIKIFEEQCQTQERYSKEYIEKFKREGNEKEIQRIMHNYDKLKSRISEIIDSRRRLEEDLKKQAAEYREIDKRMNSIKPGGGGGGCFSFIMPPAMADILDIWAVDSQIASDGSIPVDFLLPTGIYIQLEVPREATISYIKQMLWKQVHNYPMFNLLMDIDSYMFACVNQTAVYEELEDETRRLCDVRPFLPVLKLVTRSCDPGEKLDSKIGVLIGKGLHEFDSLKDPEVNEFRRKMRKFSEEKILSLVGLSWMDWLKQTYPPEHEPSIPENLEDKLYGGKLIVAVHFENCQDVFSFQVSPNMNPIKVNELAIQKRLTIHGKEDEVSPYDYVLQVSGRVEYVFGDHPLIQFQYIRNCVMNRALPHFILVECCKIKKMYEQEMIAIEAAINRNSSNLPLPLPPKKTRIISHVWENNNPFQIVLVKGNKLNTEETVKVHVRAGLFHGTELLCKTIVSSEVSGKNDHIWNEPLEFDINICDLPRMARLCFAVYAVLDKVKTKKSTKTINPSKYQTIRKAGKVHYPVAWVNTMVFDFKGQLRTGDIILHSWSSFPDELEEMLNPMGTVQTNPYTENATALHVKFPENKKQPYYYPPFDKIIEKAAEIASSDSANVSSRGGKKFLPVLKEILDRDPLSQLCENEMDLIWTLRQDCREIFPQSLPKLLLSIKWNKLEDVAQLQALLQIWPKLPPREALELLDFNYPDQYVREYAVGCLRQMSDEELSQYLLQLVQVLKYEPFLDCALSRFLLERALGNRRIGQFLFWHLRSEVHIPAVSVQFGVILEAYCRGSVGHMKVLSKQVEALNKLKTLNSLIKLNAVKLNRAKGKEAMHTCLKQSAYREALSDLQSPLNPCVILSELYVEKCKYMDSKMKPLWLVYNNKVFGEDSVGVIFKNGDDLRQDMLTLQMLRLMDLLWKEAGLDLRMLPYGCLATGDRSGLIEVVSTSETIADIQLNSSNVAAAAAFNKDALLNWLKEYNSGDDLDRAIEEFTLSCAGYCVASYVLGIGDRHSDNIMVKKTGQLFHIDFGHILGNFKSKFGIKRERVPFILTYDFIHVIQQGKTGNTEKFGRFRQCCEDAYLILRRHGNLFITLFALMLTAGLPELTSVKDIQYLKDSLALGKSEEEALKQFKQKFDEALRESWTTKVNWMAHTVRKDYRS

Structure (SMILES)	IC50 (PI3K delta)	IC50 (PI3K alpha)	IC50 (PI3K beta)	IC50 (mTOR)	IC50 [1]	IC50 [2]	IC50 [3]	IC50 [4]
Cc1ccc(-c2ccc3ncc4c(c3c2)n(-c2cc(C)nn2C)c(=O)n4C)cn1 [Example 7.1, 1-(2,5-Dimethyl-2H-pyrazol-3-yl)-3-methyl-8-(6-methyl-pyridin-3-yl)-1,3-dihydro-imidazo[4,5-c]quinolin-2-one]	68 nM	46 nM	404 nM	105 nM				
CCn1c(=O)n(C)c2ncc(-c3ccc4ncc5c(c4c3)n(-c3cn(C)nc3C)c(=O)n5C)cc21 [Example 68, 1-(1,3-Dimethyl-1H-pyrazol-4-yl)-8-(1-ethyl-3-methyl-2-oxo-2,3-dihydro-1H-imidazo[4,5-b]pyridin-6-yl)-3-methyl-1,3-dihydro-imidazo[4,5-c]quinolin-2-one]	29 nM	21 nM	61 nM	462 nM	71 nM	92 nM		
COc1nc2cc(-c3ccc4ncc5c(c4c3)n(-c3cn(C)nc3C)c(=O)n5C)cnc2n1C [Example 71, 1-(1,3-Dimethyl-1H-pyrazol-4-yl)-8-(2-methoxy-3-methyl-3H-imidazo[4,5-b]pyridin-6-yl)-3-methyl-1,3-dihydro-imidazo[4,5-c]quinolin-2-one]	262 nM			564 nM	377 nM	110 nM	13 nM	37 nM
CCNc1cc(-c2ccc3ncc4c(c3c2)n(-c2cn(C)nc2C)c(=O)n4C)cnc1Cl [Example 153.2, 8-(6-Chloro-5-ethylamino-pyridin-3-yl)-1-(1,3-dimethyl-1H-pyrazol-4-yl)-3-methyl-1,3-dihydro-imidazo[4,5-c]quinolin-2-one]	3 nM	15 nM	9 nM	< 3 nM	5 nM	< 5 nM		< 5 nM
CCn1cc(-n2c(=O)n(C)c3cnc4ccc(-c5cnc(CO)c(NC)c5)cc4c32)c(C)n1 [Example 158.5, 1-(1-Ethyl-3-methyl-1H-pyrazol-4-yl)-8-(6-hydroxymethyl-5-methylamino-pyridin-3-yl)-3-methyl-1,3-dihydro-imidazo[4,5-c]quinolin-2-one]	7 nM	14 nM	21 nM	3 nM				
CNc1ncc(-c2ccc3ncc4c(c3c2)n(-c2cn(C(C)C)nc2C)c(=O)n4C)cc1COC [Example 248.1, 1-(1-Isopropyl-3-methyl-1H-pyrazol-4-yl)-8-(5-methoxymethyl-6-methylamino-pyridin-3-yl)-3-methyl-1,3-dihydro-imidazo[4,5-c]quinolin-2-one]	4 nM	20 nM	71 nM	113 nM	73 nM	81 nM		< 5 nM
CCn1cc(-n2c(=O)n(C)c3cnc4ccc(-c5cnc(NC)c(COC)c5)cc4c32)c(C)n1 [Example 248.2, 1-(1-Ethyl-3-methyl-1H-pyrazol-4-yl)-8-(5-methoxymethyl-6-methylamino-pyridin-3-yl)-3-methyl-1,3-dihydro-imidazo[4,5-c]quinolin-2-one]	3 nM	8 nM	22 nM	15 nM				
CNc1ncc(-c2ccc3ncc4c(c3c2)n(-c2c(C)nn(C)c2C)c(=O)n4C)cc1COC [Example 248.5, 8-(5-Methoxymethyl-6-methylamino-pyridin-3-yl)-3-methyl-1-(1,3,5-trimethyl-1H-pyrazol-4-yl)-1,3-dihydro-imidazo[4,5-c]quinolin-2-one]	14 nM	32 nM	144 nM	565 nM				
